Measurements published in paper PMC2009665, “The bacterial mutation test. Six tests for carcinogenicity” (British Journal of Cancer, 1978).
Where two headings read alike, the source gives them in different places.

What was measured:
[1] = system: Salmonella typhimurium TA 100
[2] = system: Salmonella typhimurium TA 1538; settings: cited from earlier work
[3] = system: Salmonella typhimurium TA 1538
[4] = system: Salmonella typhimurium TA 100; settings: cited from earlier work
[5] = system: Salmonella typhimurium TA 1535
[6] = system: Salmonella typhimurium TA 1535; settings: cited from earlier work
[7] = system: Salmonella typhimurium TA 98
TA 1537 = settings: cited from earlier work
[8] = system: Salmonella typhimurium (TA 1535, TA 1538, TA 98 and TA 100)
S. typhimurium = settings: cited from earlier work
Strain G46 = settings: cited from earlier work
Strain C 3076 = settings: cited from earlier work
Strain TA 1530 = settings: cited from earlier work
[9] = system: Salmonella typhimurium TA 98; settings: cited from earlier work
strain TA 1952 = settings: after induction of enzymes with BHT; ref Green, 1974; cited from earlier work
Strain TA 1532 = settings: Lab 8; H induction method unknown; ref Green (1974); cited from earlier work
strain TA 1950 = settings: after induction of enzymes with BHT; ref Green, 1974; cited from earlier work

Structure (SMILES) | Result on TA 100 [1] | Result on TA 1538 [3] | Result on TA 1535 [5] | Result on TA 98 [7] | Result on TA 1537 (TA 1537) | Result in the present study [8] | further results
Nc1ccc2cc3ccccc3cc2c1 [2-Aminoanthracene] | + | + |  |  |  |  | Result on TA 1538 [2]: +; Result on TA 100 [4]: +
Nc1ccc2ccccc2c1 [2-Naphthylamine] |  |  | + | - |  |  | Result on TA 1535 [6]: +
Nc1ccc(-c2ccccc2)cc1 [4-Aminobiphenyl] |  | + | - | + | + |  | 
CN(C)c1ccc(N=Nc2ccccc2)cc1 [4-Dimethylaminoazobenzene] | + | + | + | + |  | positive | Response in the plate incorporation assay (S. typhimurium; plate incorporation assay, ref Commoner et al. (1974)): unable to obtain a positive response; Result on TA 1538 [2]: +
Nc1cc2c3ccccc3ccc2c2ccccc12 [6-Aminochrysene] |  |  | - | + | + |  | 
Cc1c2ccccc2c(C)c2c1ccc1ccccc12 [9,10-Dimethyl-1,2-benzanthracene] |  |  |  |  |  |  | Concentration of the compound at which the maximum effect occurred, TA 100 [1]: 2500; Maximum fold increase in Salmonella revertants above the concurrent negative-control values, TA 100 [1]: 5 fold; Maximum fold increase in Salmonella revertants above the concurrent negative-control values, TA 1535 [5]: -; Test result (prediction of carcinogenicity from the test) [8]: +; Maximum fold increase in Salmonella revertants above the concurrent negative-control values, TA 98 [7]: -; Concentration of the compound at which the maximum effect occurred, TA 1538 [3]: 2500; Maximum fold increase in Salmonella revertants above the concurrent negative-control values, TA 1538 [3]: 4 fold
O=C1CCO1 [/3-Propiolactone] | + | + |  | - |  |  | Result on other strains: G46 (Strain G46): 46+; Result on other strains: C 3076 (Strain C 3076): 76+; Result on TA 100 [4]: +
CCN(CC)N=O [Diethylnitrosamine] |  |  |  |  |  | positive | Result on subsequent testing [8]: negative
CN(C)N=O [Dimethylnitrosamine] |  | - | - | - |  | negative | Result on subsequent testing [8]: positive results have, on occasions; Result on other strains: TA 1530 (Strain TA 1530; Lab 4, P Phenobarbital induction and S9 mix added, L tested in liquid culture, ref Bartsch et al. (1976)): 3+
CCOS(C)(=O)=O [Ethyl methanesulphonate] | + | + | + | + |  | detected in all 4 strains | Result on other strains: G46 (Strain G46): 46+; Result on TA 1535 [6]: +; Result on other strains: C 3076 (Strain C 3076): 76+; Result on TA 100 [4]: +
CN(C)P(=O)(N(C)C)N(C)C [Hexamethylphosphoramide] |  | - |  | - |  |  | Result on TA 98 [9]: -; Result on TA 1538 [2]: -
NN [Hydrazine] | + | - | + | + | - |  | Result on other strains: G46 (Strain G46): 46+; Result on TA 1535 [6]: +; Result on other strains: TA 1530 (Strain TA 1530; Lab 2, W no S9 mix, ref McCann et al. (1975) and references quoted therein): 3+; Result on TA 1538 [2]: -
C=CCc1ccc2c(c1)OCO2 [Safrole] |  | - |  |  | - | positive | Result in host-mediated assay, strain TA 1952 (strain TA 1952): positive; Result on other strains: TA 1532 (Strain TA 1532): 2+; Result in host-mediated assay, strain TA 1950 (strain TA 1950): positive; Result on other strains: TA 1530 (Strain TA 1530; Lab 8, H induction method unknown, ref Green (1974)): 3+
CCOC(N)=O [Urethane] |  | - | - | - | - |  | Result on TA 1535 [6]: -; Result on TA 98 [9]: -
C=CCl [Vinyl chloride] |  |  |  |  |  |  | Result dissolved in DMSO (S. typhimurium): negative; Result when tested as a gas (S. typhimurium): positive
